Converted amounts (≈) assume the structure as drawn. The source made the active and inactive calls. No cut-off for these calls is given here.
Tests used:
[1] = Cytotoxicity against human BCG823 cells after 72 hrs by MTT assay; type: functional, cell-based; details: BCG823, 72 h
[2] = test system: Rattus norvegicus; assay: Hypoglycemic activity in diabetic rat model assessed as decrease in blood glucose level at 360 mg/kg, ig administered for 12 days measured on third day of compound dosing by glucometer relative to control; type: functional; details: po, 288 h
[3] = test system: Rattus norvegicus; assay: Hypoglycemic activity in diabetic rat model assessed as decrease in blood glucose level at 360 mg/kg, ig administered for 12 days measured on ninth day of compound dosing by glucometer relative to control; type: functional; details: po, 288 h
[4] = Cytotoxicity against human HCT116 cells after 72 hrs by MTT assay; type: functional, cell-based; details: HCT-116, 72 h
[5] = test system: NCI-H1650; assay: Cytotoxicity against human NCI-H1650 cells after 72 hrs by MTT assay; type: functional, cell-based; details: NCI-H1650, 72 h
[6] = test system: Rattus norvegicus; assay: Hypoglycemic activity in diabetic rat model assessed as decrease in blood glucose level at 360 mg/kg, ig administered for 12 days measured on sixth day of compound dosing by glucometer relative to control; type: functional; details: po, 288 h
[7] = Inhibition of alpha glucosidase (unknown origin) preincubated for 15 mins followed by p-nitrophenyl-alpha-D-glucopyranoside addition measured after 30 mins by spectrophotometric analysis; set-up: species or system Homo sapiens
[8] = test system: Rattus norvegicus; assay: Hypoglycemic activity in diabetic rat model assessed as decrease in blood glucose level at 360 mg/kg, ig administered for 12 days measured on twelfth day by glucometer relative to control; type: functional; details: po, 288 h
[9] = Inhibition of alpha glucosidase (unknown origin) at 100 uM preincubated for 15 mins followed by p-nitrophenyl-alpha-D-glucopyranoside addition measured after 30 mins by spectrophotometric analysis; details: Homo sapiens
[10] = test system: Rattus norvegicus; assay: Hypoglycemic activity in diabetic rat model assessed as decrease in blood glucose level at 100 mg/kg, ig administered for 12 days measured on sixth day of compound dosing by glucometer relative to control; type: functional; details: po, 288 h
[11] = test system: Rattus norvegicus; assay: Hypoglycemic activity in diabetic rat model assessed as decrease in blood glucose level at 100 mg/kg, ig administered for 12 days measured on third day of compound dosing by glucometer relative to control; type: functional; details: po, 288 h
[12] = test system: Rattus norvegicus; assay: Hypoglycemic activity in diabetic rat model assessed as decrease in blood glucose level at 100 mg/kg, ig administered for 12 days measured on ninth day of compound dosing by glucometer relative to control; type: functional; details: po, 288 h
[13] = test system: Rattus norvegicus; assay: Hypoglycemic activity in diabetic rat model assessed as decrease in blood glucose level at 100 mg/kg, ig administered for 12 days measured on twelfth day by glucometer relative to control; type: functional; details: po, 288 h
[14] = test system: Rattus norvegicus; assay: Hypoglycemic activity in diabetic rat model assessed as blood glucose level at 360 mg/kg, ig administered for 12 days measured on day 12 by glucometer (reference value: 21.95 +/- 2.83 mmol/l); type: functional
[15] = test system: Rattus norvegicus; assay: Hypoglycemic activity in diabetic rat model assessed as blood glucose level at 360 mg/kg, ig administered for 12 days measured on day 6 of compound dosing by glucometer (reference value: 21.95 +/- 2.83 mmol/l); type: functional
[16] = test system: Rattus norvegicus; assay: Hypoglycemic activity in diabetic rat model assessed as blood glucose level at 360 mg/kg, ig administered for 12 days measured on day 9 of compound dosing by glucometer (reference value: 21.95 +/- 2.83 mmol/l); type: functional
[17] = test system: Rattus norvegicus; assay: Hypoglycemic activity in diabetic rat model assessed as decrease in blood glucose level at 20 mg/kg, ig administered for 12 days measured on sixth day of compound dosing by glucometer relative to control; type: functional; details: po, 288 h
[18] = test system: Rattus norvegicus; assay: Hypoglycemic activity in diabetic rat model assessed as decrease in blood glucose level at 20 mg/kg, ig administered for 12 days measured on twelfth day by glucometer relative to control; type: functional; details: po, 288 h
[19] = test system: Rattus norvegicus; assay: Hypoglycemic activity in diabetic rat model assessed as decrease in blood glucose level at 20 mg/kg, ig administered for 12 days measured on ninth day of compound dosing by glucometer relative to control; type: functional; details: po, 288 h
[20] = test system: Rattus norvegicus; assay: Hypoglycemic activity in diabetic rat model assessed as decrease in blood glucose level at 20 mg/kg, ig administered for 12 days measured on third day of compound dosing by glucometer relative to control; type: functional; details: po, 288 h
[21] = Noncompetitive inhibition of alpha glucosidase (unknown origin) preincubated for 15 mins followed by p-nitrophenyl-alpha-D-glucopyranoside addition measured after 30 mins by Lineweaver-Burk plot analysis; set-up: species or system Homo sapiens

| Structure (SMILES) | IC50 [7] [µM] | inhibition [9] | IC50 [1] [µg/mL] | IC50 [4] [µg/mL] | IC50 [5] [µg/mL] | further results |
| --- | --- | --- | --- | --- | --- | --- |
| CN(C)C(=N)NC(=N)N [METFORMIN] |  |  |  |  |  | inhibition in vivo at 100 mg/kg [10]: 7.86%; inhibition in vivo at 100 mg/kg [11]: 7.86%; inhibition in vivo at 100 mg/kg [12]: 7.86%; inhibition in vivo at 100 mg/kg [13]: 7.86% |
| COC(=O)C(CO)c1ccc(OC)cc1 (configuration not stated) |  | inactive | > 0.01 | > 0.01 | > 0.01 |  |
| COC(=O)C(/C=N/NC(N)=S)c1ccc(OC)cc1 (configuration not stated) | > 200 | 14.4% | > 0.01 | 0.0088 (≈ 0.0313 µM) | 0.0025 (≈ 0.00889 µM) |  |
| CCOC(=O)C(CO)c1ccc(F)cc1 (configuration not stated) | > 200 | 19.2% | > 0.01 | > 0.01 | > 0.01 |  |
| COC(=O)C(C=O)c1ccc(C)cc1 (configuration not stated) | 185 | 29.3% | > 0.01 | > 0.01 | > 0.01 |  |
| CCOC(=O)C(/C=N/NC(N)=S)c1ccc(C(F)(F)F)cc1 (configuration not stated) | 137 | 34% | > 0.01 | 0.00367 (≈ 0.011 µM) | 0.00805 (≈ 0.0241 µM) |  |
| COC(=O)C(CO)c1ccc(C)cc1 (configuration not stated) | > 200 | 14.6% | > 0.01 | > 0.01 | > 0.01 | Activity [14]: 21.4 mmol/L; Activity [15]: 21.66 mmol/L; inhibition in vivo at 360 mg/kg [2]: 7.86%; Activity [16]: 21.76 mmol/L |
| CCOC(=O)C(/C=N/OC)c1ccc(C(F)(F)F)cc1 (configuration not stated) |  | inactive | > 0.01 | > 0.01 | > 0.01 |  |
| COC(=O)C(/C=N/NC(N)=S)c1ccccc1 (configuration not stated) | > 200 | 19.8% | 0.00818 (≈ 0.0325 µM) | 0.00321 (≈ 0.0128 µM) | 0.00325 (≈ 0.0129 µM) |  |
| OC[C@H]1NC[C@H](O)[C@@H](O)[C@@H]1O [DUVOGLUSTAT] | 109 | 52.5% |  |  |  |  |
| CCC1=C(C)CN(C(=O)NCCc2ccc(S(=O)(=O)NC(=O)N[C@H]3CC[C@H](C)CC3)cc2)C1=O [GLIMEPIRIDE] |  |  |  |  |  | inhibition in vivo at 20 mg/kg [17]: 7.86%; inhibition in vivo at 20 mg/kg [18]: 7.86%; inhibition in vivo at 20 mg/kg [19]: 7.86%; inhibition in vivo at 20 mg/kg [20]: 7.86% |
| COC(=O)C(/C=N/NC(N)=S)c1ccc(C)cc1 (configuration not stated) | 190 | 20.8% | 0.00522 (≈ 0.0197 µM) | > 0.01 | 0.00534 (≈ 0.0201 µM) |  |
| CCOC(=O)C(C=O)c1ccc(F)cc1 (configuration not stated) | 183 | 20.4% | > 0.01 | > 0.01 | > 0.01 |  |
| CCOC(=O)C(CO)c1ccc(C(F)(F)F)cc1 (configuration not stated) |  | inactive | > 0.01 | > 0.01 | > 0.01 |  |
| CCOC(=O)C(C=O)c1ccc(C(F)(F)F)cc1 (configuration not stated) |  | inactive | > 0.01 | > 0.01 | > 0.01 |  |
| CCOC(=O)C(/C=N/OC)c1ccc(F)cc1 (configuration not stated) |  | inactive | > 0.01 | > 0.01 | > 0.01 |  |
| CCOC(=O)C(/C=N/NC(N)=S)c1ccc(F)cc1 (configuration not stated) | 46.8 | 65.3% | 0.00727 (≈ 0.0257 µM) | 0.00191 (≈ 0.00674 µM) | 0.00198 (≈ 0.00699 µM) | Ki [21]: 65.4 µM; inhibition in vivo at 360 mg/kg [2]: 10.3%; inhibition in vivo at 360 mg/kg [3]: 16.9%; inhibition in vivo at 360 mg/kg [6]: 7.86%; inhibition in vivo at 360 mg/kg [8]: 18.1% |
| COC(=O)C(C=O)c1ccc(OC)cc1 (configuration not stated) | > 200 | 18.4% | > 0.01 | > 0.01 | > 0.01 |  |

Continued, in another order:

| IC50 [7] [µM] | inhibition [9] | Structure (SMILES) | IC50 [1] [µg/mL] | IC50 [4] [µg/mL] | IC50 [5] [µg/mL] | further results |
| --- | --- | --- | --- | --- | --- | --- |
| 83.8 | 47.8% | CCOC(=O)C(COC(=O)/C=C/c1ccc(OC)c(OC)c1)c1ccc(F)cc1 (configuration not stated) | > 0.01 | > 0.01 | > 0.01 | inhibition in vivo at 360 mg/kg [2]: 7.86%; inhibition in vivo at 360 mg/kg [3]: 7.86%; inhibition in vivo at 360 mg/kg [6]: 7.86%; inhibition in vivo at 360 mg/kg [8]: 19% |
| > 200 | 27.3% | CCOC(=O)C(COC(=O)c1ccccc1)c1ccc(F)cc1 (configuration not stated) | > 0.01 | > 0.01 | > 0.01 |  |
| 186 | 28.7% | COC(=O)C(CO)c1ccccc1 (configuration not stated) | > 0.01 | > 0.01 | > 0.01 |  |
| 191 | 29.9% | CCOC(=O)C(COC(=O)/C=C/c1ccc(OC)c(OC)c1)c1ccc(C(F)(F)F)cc1 (configuration not stated) | > 0.01 | > 0.01 | > 0.01 |  |
| > 200 | 16.8% | CCOC(=O)C(COC(=O)c1ccccc1)c1ccc(C(F)(F)F)cc1 (configuration not stated) | > 0.01 | > 0.01 | > 0.01 |  |
| > 200 | 15.3% | COC(=O)C(C=O)c1ccccc1 (configuration not stated) | > 0.01 | > 0.01 | > 0.01 |  |
| > 200 | 14.1% | CCOC(=O)C(COC(=O)c1ccccc1OC(C)=O)c1ccc(C(F)(F)F)cc1 (configuration not stated) | > 0.01 | > 0.01 | > 0.01 |  |
| > 200 | 15.8% | CCOC(=O)C(COC(=O)c1ccccc1OC(C)=O)c1ccc(F)cc1 (configuration not stated) | > 0.01 | > 0.01 | > 0.01 |  |
| > 200 | 11.1% | COC(=O)C(COC(=O)/C=C/c1ccc(OC)c(OC)c1)c1ccccc1 (configuration not stated) | > 0.01 | > 0.01 | > 0.01 | Activity [14]: 20.76 mmol/L; inhibition in vivo at 360 mg/kg [2]: 7.86%; Activity [16]: 20.44 mmol/L; inhibition in vivo at 360 mg/kg [6]: 7.86% |
| > 200 | 13.7% | COC(=O)C(COC(=O)c1ccccc1OC(C)=O)c1ccccc1 (configuration not stated) | > 0.01 | > 0.01 | > 0.01 |  |
| > 200 | 12.9% | COC(=O)C(COC(=O)c1ccccc1)c1ccccc1 (configuration not stated) | > 0.01 | > 0.01 | > 0.01 |  |
